Experimental findings from patent US20210380548A1, “Fused [1,2,4]Thiadiazine Derivatives Which Act as KAT Inhibitors of the MYST Family” (CTxT Pty Limited, priority 2017, published 2021) are described below.

Test [1] addresses T1, HBO-KAT7 (Homo sapiens, UniProt O95251).
T1 construct: encoding amino acid residues 325 to 611 (Uniprot 095251-1) of human KAT7; made in house; host or cells: E. coli BL21 DE3 RIL
Description: Acetyltransferase biochemical assay (AlphaScreen), KAT7. Particulars: Table 3 (HBO-KAT7); 0.4 μM Acetyl coenzyme A, histone H3.1, 40 nM enzyme.

Test [2] addresses T2, MOZ-KAT6A (Homo sapiens, UniProt Q92794, A567V).
T2 construct: encoding amino acid residues 507 to 778 (Uniprot Q92794-1) of human KAT6A; made in house; host or cells: E. coli BL21 DE3
Description: Acetyltransferase biochemical assay (AlphaScreen), KAT6A. Particulars: Table 2 (MOZ-KAT6A); 10 μM Acetyl coenzyme A, histone H3.1, 5 nM enzyme. On the technique in general: In Alpha technology, singlet oxygen from a donor bead excites a nearby acceptor bead.

Test [3] has as its target T1, HBO-KAT7. Description: Revised Acetyltransferase Biochemical Assay, KAT7. Particulars: Table 9 (HBO-KAT7), 1 μM Acetyl coenzyme A.
In test [4] the target is T3, TIP60-KAT5 (Homo sapiens, UniProt Q92993).
T3 construct: encoding amino acid residues 2 to 461 (Uniprot Q92993-2) of human KAT5 isoform; made in house; host or cells: E. coli BL21 DE3
T3 sequence (Q92993 2-461 isoform Q92993-2): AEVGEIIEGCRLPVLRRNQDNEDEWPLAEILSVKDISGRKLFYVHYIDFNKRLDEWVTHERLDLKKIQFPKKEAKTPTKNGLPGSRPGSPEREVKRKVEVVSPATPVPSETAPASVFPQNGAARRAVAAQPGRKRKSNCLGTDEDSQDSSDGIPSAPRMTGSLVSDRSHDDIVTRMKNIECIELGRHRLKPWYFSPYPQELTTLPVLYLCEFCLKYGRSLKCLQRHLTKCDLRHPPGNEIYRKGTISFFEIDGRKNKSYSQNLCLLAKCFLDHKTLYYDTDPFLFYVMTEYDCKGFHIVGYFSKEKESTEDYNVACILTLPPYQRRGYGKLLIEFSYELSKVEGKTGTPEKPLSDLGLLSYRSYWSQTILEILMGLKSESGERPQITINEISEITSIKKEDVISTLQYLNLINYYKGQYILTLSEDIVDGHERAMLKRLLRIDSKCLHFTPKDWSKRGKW
Description: Revised Acetyltransferase Biochemical Assay, KAT5. Particulars: 10 nM KAT5, 1 μM AcCoA, 100 nM histone H4, 90 min.

Test [5] concerns the target T2, MOZ-KAT6A. The test can be described thus: Revised Acetyltransferase Biochemical Assay, KAT6A. Particulars: Table 8 (MOZ-KAT6A), 1 μM Acetyl coenzyme A.
In test [6] the target is T3, TIP60-KAT5. The test can be described thus: Acetyltransferase biochemical assay (AlphaScreen), KAT5. Particulars: Table 1 (TIP60-KAT5); 0.4 μM Acetyl coenzyme A, histone H4, 10 nM enzyme.
Test [7] deals with T4, MOF-KAT8 (Homo sapiens, UniProt Q9H7Z6).
T4 sequence (Q9H7Z6 177-447): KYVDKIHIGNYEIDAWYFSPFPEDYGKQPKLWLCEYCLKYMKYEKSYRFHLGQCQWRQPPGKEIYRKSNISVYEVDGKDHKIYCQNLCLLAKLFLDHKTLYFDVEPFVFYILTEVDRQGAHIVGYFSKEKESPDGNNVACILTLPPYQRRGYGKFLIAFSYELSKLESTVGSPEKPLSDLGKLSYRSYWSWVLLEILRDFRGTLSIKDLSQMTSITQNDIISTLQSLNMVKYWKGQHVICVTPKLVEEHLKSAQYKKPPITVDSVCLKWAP
The test can be described thus: Revised Acetyltransferase Biochemical Assay, KAT8.

The target in test [8] is T4, MOF-KAT8. Description: Acetyltransferase biochemical assay (AlphaScreen), KAT8. Particulars: Table 4 (MOF-KAT8); 0.4 μM Acetyl coenzyme A, histone H4, 20 nM enzyme.

Some results are limits rather than exact numbers.

T2 sequence (Q92794 507-778 A567V limits assumed): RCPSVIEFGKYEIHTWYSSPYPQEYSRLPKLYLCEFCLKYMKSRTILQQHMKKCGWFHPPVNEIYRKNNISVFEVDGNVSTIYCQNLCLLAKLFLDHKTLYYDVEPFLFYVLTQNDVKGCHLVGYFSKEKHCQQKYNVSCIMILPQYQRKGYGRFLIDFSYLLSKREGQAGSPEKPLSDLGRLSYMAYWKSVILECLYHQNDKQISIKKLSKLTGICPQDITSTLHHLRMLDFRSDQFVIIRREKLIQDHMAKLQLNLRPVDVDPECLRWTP
T1 sequence (O95251 with tags, fused parts or gaps): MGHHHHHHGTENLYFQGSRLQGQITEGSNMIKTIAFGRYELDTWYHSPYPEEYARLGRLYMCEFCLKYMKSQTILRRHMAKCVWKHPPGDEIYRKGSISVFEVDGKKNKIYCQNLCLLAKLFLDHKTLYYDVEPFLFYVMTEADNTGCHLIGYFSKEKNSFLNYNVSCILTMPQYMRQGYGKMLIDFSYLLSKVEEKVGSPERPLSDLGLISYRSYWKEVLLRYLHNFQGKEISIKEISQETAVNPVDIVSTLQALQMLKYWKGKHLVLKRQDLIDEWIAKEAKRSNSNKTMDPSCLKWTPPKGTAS

Broadly, the IC50 is the point on the concentration scale where inhibition reaches its midpoint. Higher therefore signals lower potency. In the case of `O=C(NCCc1ccccc1)C1=Nc2ccc(Br)cc2S(=O)(=O)N1` [Example 78], the half-maximal inhibitory concentration (IC50) at HBO-KAT7 [1] turned out to be 4.56 µM; against MOZ-KAT6A [2], 3.74 µM; against HBO-KAT7 [3], 3.53 µM; at TIP60-KAT5 [4], 4.54 µM; against MOZ-KAT6A [5], 0.203 µM; on TIP60-KAT5 [6] it was 16.7 µM. This compound also came in with an IC50 against MOF-KAT8 [7] greater than 125 µM.
Turning to `O=C(NCCc1ccccc1C(F)(F)F)C1=Nc2ccc(I)cc2S(=O)(=O)N1` [Example 118], the IC50 against HBO-KAT7 [1] is 3.02 µM; on HBO-KAT7 [3] it was 0.412 µM; at TIP60-KAT5 [4] it was 0.208 µM; on MOZ-KAT6A [5] it was 0.046 µM; against TIP60-KAT5 [6] it was 2.29 µM; at MOF-KAT8 [7] it was greater than 125 µM.
Take `COC(=O)NC(CNC(=O)C1=Nc2ccccc2S(=O)(=O)N1)c1ccccc1` (stereo not shown) [Example 129]: the half-maximal inhibitory concentration (IC50) against HBO-KAT7 [1] is greater than 125 µM; at HBO-KAT7 [3] it was 24.8 µM; on TIP60-KAT5 [4], 58.3 µM; on MOZ-KAT6A [5], 0.25 µM; against TIP60-KAT5 [6], greater than 125 µM; on MOF-KAT8 [7] it was greater than 125 µM.
On to `O=C(NCC(c1ccccc1)c1ncco1)C1=Nc2cccnc2S(=O)(=O)N1` (stereo not shown) [Example 96], for which the IC50 against HBO-KAT7 [1] worked out at 3.17 µM; at MOZ-KAT6A [2], 1.17 µM; at HBO-KAT7 [3], 1.11 µM; on TIP60-KAT5 [4], 13.3 µM; against MOZ-KAT6A [5], 0.149 µM; against TIP60-KAT5 [6], 94.7 µM. At MOF-KAT8 [7], this compound returned an IC50 greater than 125 µM.
Regarding `O=C(NCC(c1ccccc1)c1nc(CO)no1)C1=Nc2ccc(I)cc2S(=O)(=O)N1` (stereo not shown) [Example 59, N-(2-(3-(hydroxymethyl)-1,2,4-oxadiazol-5-yl)-2-phenylethyl)-7-iodo-2H-benzo[e][1,2,4]thiadiazine-3-carboxamide 1,1-dioxide], the IC50 came out at 0.403 µM against HBO-KAT7 [3], 0.721 µM against TIP60-KAT5 [4], 0.032 µM at MOZ-KAT6A [5] and 26.8 µM against MOF-KAT8 [7].
For `COc1ccc2c(c1)S(=O)(=O)NC(C(=O)NCC(c1ccccc1)c1ccccc1)=N2` [Example 19, N-(2,2-diphenylethyl)-7-methoxy-2H-benzo[e][1,2,4]thiadiazine-3-carboxamide 1,1-dioxide], the IC50 against MOZ-KAT6A [2] is 1.35 µM; against HBO-KAT7 [3], 1 µM; at TIP60-KAT5 [4], 14.6 µM; at MOZ-KAT6A [5] it was 0.27 µM; against TIP60-KAT5 [6], 33.2 µM; against MOF-KAT8 [7] it was greater than 125 µM.
For the compound `O=C(NCC(CCO)c1ccccc1)C1=Nc2ccccc2S(=O)(=O)N1` (stereo not shown) [Example 3, N-(4-Hydroxy-2-phenylbutyl)-2H-benzo[e][1,2,4]thiadiazine-3-carboxamide 1,1-dioxide], the IC50 against MOZ-KAT6A [2] was determined as 7.66 µM; against HBO-KAT7 [3], 49.9 µM; against TIP60-KAT5 [4], 99.6 µM; at MOZ-KAT6A [5], 4.95 µM; against TIP60-KAT5 [6], 96.5 µM; at MOF-KAT8 [7] it was 12.2 µM.
With `COC(=O)c1ccc2c(c1)S(=O)(=O)NC(C(=O)NCC(c1ccccc1)c1ccccc1)=N2` [Example 20], the IC50 at MOZ-KAT6A [2] worked out at 6.05 µM; at HBO-KAT7 [3], 1.25 µM; at TIP60-KAT5 [4], 13.8 µM; against MOZ-KAT6A [5], 0.49 µM; at TIP60-KAT5 [6], 29.5 µM; against MOF-KAT8 [7] it was 62.8 µM.
For the compound `N#Cc1cccc(C(CNC(=O)C2=Nc3ccccc3S(=O)(=O)N2)c2ncco2)c1` (stereo not shown) [Example 227, N-(2-(3-Cyanophenyl)-2-(oxazol-2-yl)ethyl)-2H-benzo[e][1,2,4]thiadiazine-3-carboxamide 1,1-dioxide], the IC50 on HBO-KAT7 [3] was 4.49 µM; on TIP60-KAT5 [4] it was 98.7 µM; against MOZ-KAT6A [5], 1.36 µM; against MOF-KAT8 [7], greater than 125 µM.
Take `COC(=O)NC(CNC(=O)C1=Nc2ccccc2S(=O)(=O)N1)C1CCCCC1` (stereo not shown) [Example 243, methyl (1-cyclohexyl-2-(1,1-dioxido-2H-benzo[e][1,2,4]thiadiazine-3-carboxamido)ethyl)carbamate]: the IC50 came out at 77.3 µM on HBO-KAT7 [3], 39.9 µM against TIP60-KAT5 [4], 12.3 µM against MOZ-KAT6A [5] and 82.5 µM at MOF-KAT8 [8].
As for `O=C(NCC(c1ccccc1)n1cccn1)C1=Nc2ccccc2S(=O)(=O)N1` (stereo not shown) [Example 75], the IC50 is 1.72 µM at MOZ-KAT6A [2]; 1.15 µM at HBO-KAT7 [3]; 14.1 µM against TIP60-KAT5 [4]; 0.308 µM on MOZ-KAT6A [5]; 56.6 µM at TIP60-KAT5 [6]; greater than 125 µM on MOF-KAT8 [7].
In the case of `O=C(NCC(c1ncco1)c1ccccc1CO)C1=Nc2ccccc2S(=O)(=O)N1` (stereo not shown) [Example 157], the IC50 at HBO-KAT7 [3] is 22.3 µM; against TIP60-KAT5 [4], greater than 125 µM; against MOZ-KAT6A [5], 8.8 µM; on MOF-KAT8 [7] it was greater than 125 µM.
In the case of `CC(=O)c1ccc2c(c1)S(=O)(=O)NC(C(=O)NCC(c1ccccc1)c1ncco1)=N2` (stereo not shown) [Example 43, 7-acetyl-N-(2-(oxazol-2-yl)-2-phenylethyl)-2H-benzo[e][1,2,4]thiadiazine-3-carboxamide 1,1-dioxide], the IC50 is 1.99 µM on HBO-KAT7 [1]; 0.243 µM at MOZ-KAT6A [2]; 0.086 µM at HBO-KAT7 [3]; 0.266 µM against TIP60-KAT5 [4]; 0.014 µM at MOZ-KAT6A [5]; 2.39 µM against TIP60-KAT5 [6]. The compound further returned an IC50 at MOF-KAT8 [7] of 71.6 µM.
For the compound `O=C(NCC(c1ccccc1)c1ncco1)C1=Nc2ccc(C(F)(F)F)cc2S(=O)(=O)N1` (stereo not shown) [Example 120], the IC50 at HBO-KAT7 [1] was determined as 3.52 µM; against HBO-KAT7 [3], 0.14 µM; at TIP60-KAT5 [4] it was 0.224 µM; on MOZ-KAT6A [5], 0.017 µM; against TIP60-KAT5 [6] it was 1.24 µM; against MOF-KAT8 [7], 41.5 µM.
As for `O=C(NCC(c1ccccc1)c1ncco1)C1=Nc2ccc(-c3nccs3)cc2S(=O)(=O)N1` (stereo not shown) [Example 134], the IC50 worked out at 3.32 µM at HBO-KAT7 [1]; 0.149 µM against MOZ-KAT6A [2]; 0.72 µM against HBO-KAT7 [3]; 0.648 µM at TIP60-KAT5 [4]; 0.024 µM against MOZ-KAT6A [5]; 2.17 µM on TIP60-KAT5 [6]. Moreover, the 50% inhibitory concentration (IC50) against MOF-KAT8 [7] came to 15.7 µM.
As to `COC(CNC(=O)C1=Nc2ccc(I)cc2S(=O)(=O)N1)c1ccccc1` (stereo not shown) [Example 88], the IC50 came to 0.659 µM against HBO-KAT7 [1], 1.19 µM at TIP60-KAT5 [6] and 47 µM at MOF-KAT8 [8].
On to `O=C(NCC(c1cccc(-c2ccccc2)c1)c1ncco1)C1=Nc2ccccc2S(=O)(=O)N1` (stereo not shown) [Example 158], for which the IC50 against HBO-KAT7 [3] was 5.46 µM; on TIP60-KAT5 [4] it was 26.8 µM; at MOZ-KAT6A [5] it was 1.73 µM; at MOF-KAT8 [7], 30.7 µM.
`CS(=O)(=O)Nc1ccc2c(c1)S(=O)(=O)NC(C(=O)NCC(c1ccccc1)c1ncco1)=N2` (stereo not shown) [Example 153, 7-(Methylsulfonamido)-N-(2-(oxazol-2-yl)-2-phenylethyl)-2H-benzo[e][1,2,4]thiadiazine-3-carboxamide 1,1-dioxide]: the IC50 turned out to be 3.41 µM against HBO-KAT7 [1]; 0.672 µM at HBO-KAT7 [3]; 3.37 µM at TIP60-KAT5 [4]; 0.054 µM against MOZ-KAT6A [5]; 38.7 µM on TIP60-KAT5 [6]; 20.1 µM against MOF-KAT8 [7].
As for `O=C(NCC(c1ccccc1)c1ccccc1)C1=Nc2ccccc2S(=O)(=O)N1` [Example 68], the IC50 at HBO-KAT7 [1] was determined as 0.462 µM; against MOZ-KAT6A [2] it was 3.81 µM; against HBO-KAT7 [3], 0.601 µM; at TIP60-KAT5 [4] it was 7.21 µM; on MOZ-KAT6A [5] it was 0.108 µM; on TIP60-KAT5 [6], 14.5 µM. On MOF-KAT8 [7], the IC50 is 16.5 µM.
Take `O=C(NCC(CO)c1ccccc1)C1=Nc2ccccc2S(=O)(=O)N1` (stereo not shown) [Example 2, N-(3-Hydroxy-2-phenylpropyl)-2H-benzo[e][1,2,4]thiadiazine-3-carboxamide 1,1-dioxide]: the concentration for half-maximal inhibition (IC50) against MOZ-KAT6A [2] is 38.1 µM; against HBO-KAT7 [3] it was 28 µM; at TIP60-KAT5 [4], 60.7 µM; against MOZ-KAT6A [5], 5.14 µM; at TIP60-KAT5 [6], greater than 125 µM; against MOF-KAT8 [7], greater than 125 µM.
